Measurements as given in ChEMBL document CHEMBL1153808, “Antimalarial benzylisoquinoline alkaloid from the rainforest tree Doryphora sassafras” (J Nat Prod, 2009).
pIC50: −log10 of the molar value.

What was measured:
in vitro [1] = conditions: human, HEK293 cells
Description: Selectivity index, ratio of antimicrobial activity against Plasmodium falciparum 3D7 over cytotoxicity against human HEK293 cells

in vitro [2] = conditions: human, HEK293 cells; remark: listed apart in the source
Description: Selectivity index, ratio of antimicrobial activity against Plasmodium falciparum Dd2 over cytotoxicity against human HEK293 cells

HEK293 [3] = experiment: Cytotoxicity against human HEK293 cells at 120 uM after 72 hrs by Alamar blue assay; assay type: cell-based; conditions: hek293, 72 h
Plasmodium falciparum [4] = experiment: microbe, parasite or virus in culture; conditions: Dd2, 72 h
Description: Antimalarial activity against chloroquine-resistant Plasmodium falciparum Dd2 after 72 hrs by DAPI staining method

Plasmodium falciparum [5] = experiment: microbe, parasite or virus in culture; conditions: 3D7, 72 h
Description: Antimalarial activity against chloroquine-sensitive Plasmodium falciparum 3D7 after 72 hrs by DAPI staining method

HEK293 [6] = experiment: Cytotoxicity against human HEK293 cells at 2 uM after 72 hrs by Alamar blue assay; assay type: cell-based; conditions: hek293, 72 h

Row | Structure (SMILES) | selectivity ratio (in vitro [1]) | selectivity ratio (in vitro [2]) | Activity (HEK293 [3]) | pIC50 (Plasmodium falciparum [4]) | pIC50 (Plasmodium falciparum [5]) | Activity (HEK293 [6])
1 | C[n+]1ccc2cc3c(cc2c1Cc1ccc(O)cc1)OCO3.O=C([O-])C(F)(F)F | > 40 | > 27 | 0% | 5.52 | 5.36 | 
2 | COc1ccc2c(c1O)-c1c(OC)c(OC)cc3c1[C@H](C2)NCC3.O=C(O)C(F)(F)F | > 6 | > 6 | 0% | 4.77 | 4.72 | 
3 | C[C@@H]1CC[C@H]2[C@@H](C)C(=O)O[C@@H]3O[C@@]4(C)CC[C@@H]1[C@]32OO4 [ARTEMISININ] | > 100 | > 100 |  | 7.68 | 7.68 | 0%
4 | CCN(CC)CCCC(C)Nc1ccnc2cc(Cl)ccc12 (stereo unspecified) [CHLOROQUINE] |  |  |  |  |  | 0%
